Marks after values point to notes of the source that are not given here.
Legend:
[1] = system: Staphylococcus aureus MRSABAA-42; assay: Bronchus pneumonia mice infected by Staphylococcus aureus MRSA BAA-42, treated by atomization inspiring; assay type: in vivo; conditions: for bacterial number: mice lung
[2] = system: Staphylococcus aureus MRSABAA-42; assay: as above; assay type: in vivo; conditions: for survival rate (%): 14 days; for bacterial number: mice lung
Source text: A, atomization sucks gene recombinant Human Lysozyme (HLZ) cured bronchus pneumonia mice infected by Staphylococcus aureus MRSABAA-42
Choose the test lawn, after washing with the physiological saline, correcting by McB tubes for comparative tests bacterium solution concentration 2#MCF, turbidity of 2.7×10^11 CFU/ml, diluted with physiological saline separately into 10^−1, 10^−2, 10^−3 bacterium solution, drip the nose to infect for mice respectively (anaesthetize the mice with the pentobarbital first, 30 mg/kg, ip.), 0.05 ml a mouse. Observed the mice body changing, and killed parts of mice after infecting 48 h, fetch the whole lung to tissue homogenate, 10 times diluted by physiological saline, draw 0.1 m1 to MH agar plate surface, to cultivate last night 35° C., Gram staining, test under microscope, and count plate. At the same time recorded the number of death mice, and collect some mice tracheas, bronchus, lung tissue and do pathology tissue observing.
It is called medial lethal dose (LD50) that bacterium amount caused mice appearing lung pharmacology change and 50% died. LD50was used as experimental treatment amount.
Infected mice is divided into 10 groups at random according to the weight, 30 every groups.
Designed dosage: The concentration of recombinant human lysozyme medicine was 15000 u/ml as in clinical atomization therapy. Its dose was 15000 u per time and administrated one time everyday, I.e 0.5 mg per time everyday. The dose was 1.3×10-3 mg a mice (counted by weight of 20 g). […] To ensure the breathing amount of lysozyme, the breathing time were extended for 0.5 hour. Based on 0.5 mg/ml, the concentration of 0.25 mg/ml, 1.0 mg/ml and 2.0 mg/ml were set respectively as treatment dose.
The same group mice were put into the ultrasonic atomizer and then treated with human lysozyme atomized in the compression sprayer (PARL.BOY), twice a day, 5 days in succession.
Every group, from the infected day to calculae, the animal incidence and death were recorded 14 days in succession. Every group collected 2-3 mice and killed them the 14th day after infecting, did bacteriology detection after lung homogenate, killed surplus animal to fetch the trachea, bronchus, fixed in 10% of the formaldehyde solution after weighing, did pathology check.
The bacterial culture: A part of mice were killed after infecting 24 h, fetched the whole lung weighting, added 2 ml degerming PBS solution 10 times diluted, draw 0.1 mL to MH agar plate surface, to cultivate last night 35° C., counted in the cultivation plateform of 30-300 CF, if the two close level tissue fluid is 30-300 CFU, counted the low density (make 3 plateforms at the same time each tissue fluid, calculate the average). Collected 2 mice to do bacterial culture in every group at random in 5, 7, 14 days after administration.
Pathology detection: After dissecting the mice, observed the trachea, bronchus, syncretio of lung, chest wall and membrana pleuralis, the volume of lung and size of lung focus, the lung surface was congested, hydroncus, consolidation and atelectasis by the naked eye. Took out the trachea, bronchus and the whole lung tissue to fixed with 10% of the formaldehyde solution, draw materials.

[3] = 0.25 mg/ml atomization inspired, listed as gene recombinant human lysozyme
[4] = 0.25 mg/ml atomization inspired, listed as recombinant human lysozyme

Human lysozyme: gene recombinant Human Lysozyme (HLZ), active unit 30000 u/mg, batch number 020110; given atomized / as aerosol
The 4th day (bacterial number, head incomplete) ([1]; dose 2, the 4th day): 3.5 ± 2.0 | The 5th day (bacterial number, head incomplete) ([1]; dose 2, the 5th day): 76.70 ± 11.60 | result of pathology detection of the mice bronchus ([1]; high dose 2 mg/ml, 3rd day): bronchus moderate inflammation, mucous membrane | result of pathology detection of the mice lung tissue ([1]; high dose 2 mg/ml, 3rd day): part of alveolar wall tissue thickening, few monocaryon | result of pathology detection of the mice trachea ([1]; high dose 2 mg/ml, 3rd day): acute moderate inflammation | result of pathology detection of the mice bronchus ([1]; high dose 2 mg/ml, 7th day): bronchus moderate inflammation, intact mucous | result of pathology detection of the mice lung tissue ([1]; high dose 2 mg/ml, 7th day): normal basically | result of pathology detection of the mice trachea ([1]; high dose 2 mg/ml, 7th day): Normal basically | result of pathology detection of the mice bronchus ([1]; high dose 2 mg/ml, 14th day): Normal basically | result of pathology detection of the mice bronchus ([1]; low dose 0.5 mg/ml, 3rd day): bronchus moderate inflammation | result of pathology detection of the mice lung tissue ([1]; low dose 0.5 mg/ml, 3rd day): the disperse alveolar wall tissue gently thickening, | result of pathology detection of the mice trachea ([1]; low dose 0.5 mg/ml, 3rd day): acute hyperphlogosis | result of pathology detection of the mice bronchus ([1]; low dose 0.5 mg/ml, 7th day): bronchus moderate inflammation | result of pathology detection of the mice lung tissue ([1]; low dose 0.5 mg/ml, 7th day): the part or disperse alveolar wall tissue gently | result of pathology detection of the mice trachea ([1]; low dose 0.5 mg/ml, 7th day): acute hyperphlogosis | result of pathology detection of the mice bronchus ([1]; low dose 0.5 mg/ml, 14th day): bronchus moderate inflammation, bleeding | result of pathology detection of the mice trachea ([1]; low dose 0.5 mg/ml, 14th day): acute mild inflammation | result of pathology detection of the mice bronchus ([1]; medium dose 1 mg/ml, 3rd day): bronchus moderate inflammation, bleeding, hydroncus, | result of pathology detection of the mice lung tissue ([1]; medium dose 1 mg/ml, 3rd day): bronchiole alveolar wall tissue thickening, few | result of pathology detection of the mice trachea ([1]; medium dose 1 mg/ml, 3rd day): acute moderate inflammation | result of pathology detection of the mice bronchus ([1]; medium dose 1 mg/ml, 7th day): bronchus moderate inflammation | result of pathology detection of the mice trachea ([1]; medium dose 1 mg/ml, 7th day): acute moderate inflammation | result of pathology detection of the mice bronchus ([1]; medium dose 1 mg/ml, 14th day): bronchus moderate inflammation | result of pathology detection of the mice lung tissue ([1]; medium dose 1 mg/ml, 14th day): normal basically | result of pathology detection of the mice trachea ([1]; medium dose 1 mg/ml, 14th day): Normal basically | pharmacology histology detection of trachea, bronchus, lung tissue ([1]; mice killed on the 7th, 14th day after administration): turned to normal basically | bacterial number ([1]; atomization inspired 0.5 (15000 u/piece), the 1th day): 350.60 ± 21.5 CFU/mL | bacterial number ([1]; atomization inspired 0.5 (15000 u/piece), the 3rd day): 241.90 ± 16.62 CFU/mL | bacterial number ([1]; atomization inspired 0.5 (15000 u/piece), the 5th day): 134.60 ± 13.58 CFU/mL | bacterial number ([1]; atomization inspired 0.5 (15000 u/piece), the 14th day): 57.60 ± 15.37 CFU/mL | bacterial number ([1]; atomization inspired 1 (30000 u/piece), 0 day): 350 ± 21.5 CFU/mL | bacterial number ([1]; atomization inspired 1 (30000 u/piece), the 1th day): 254.20 ± 25.42 CFU/mL | bacterial number ([1]; atomization inspired 1 (30000 u/piece), the 3rd day): 172.70 ± 17.62**^ΔΔ CFU/mL | bacterial number ([1]; atomization inspired 1 (30000 u/piece), the 14th day): 3.5 ± 0.20 CFU/mL | bacterial number ([1]; atomization inspired 2 (60000 u/piece), the 1th day): 253.80 ± 22.88 CFU/mL | bacterial number ([1]; atomization inspired 2 (60000 u/piece), the 3rd day): 165.80 ± 16.08^ΔΔ CFU/mL | bacterial number ([1]; atomization inspired 2 (60000 u/piece), the 5th day): 76.70 ± 11.60***^ΔΔ CFU/mL | bacterial number ([1]; atomization inspired 2 (60000 u/piece), the 14th day): 2.50 ± 1.46 CFU/mL | survival rate (%) [2, 3]: 40% | survival rate (%) [2, 4]: 40% | average survival day (day, x ± s) [2, 3]: 9.30 ± 4.08 days | average survival day (day, x ± s) [2, 4]: 9.30 ± 4.08 days | Death number(piece) ([2]; 0.5 mg/ml atomization inspired, day 7): 4 piece | average survival day (day, x ± s) ([2]; 0.5 mg/ml atomization inspired, listed as gene recombinant human lysozyme): 10.3 ± 3.77 days | average survival day (day, x ± s) ([2]; 0.5 mg/ml atomization inspired, listed as recombinant human lysozyme): 3.77 ± 10.3 days | survival number ([2]; 1 mg/ml atomization inspired, 30 mice): 17 | average survive days ([2]; 1 mg/ml atomization inspired, listed as gene recombinant human lysozyme): 11.2 ± 3.36 days | average survive days ([2]; 1 mg/ml atomization inspired, listed as recombinant human lysozyme): 11.23 ± 3.36 days | Death number(piece) ([2]; 2 mg/ml atomization inspired, day 8): 2 piece | average survival day (day, x ± s) ([2]; 2 mg/ml atomization inspired, listed as gene recombinant human lysozyme): 12.93 ± 2.05 days | average survival day (day, x ± s) ([2]; 2 mg/ml atomization inspired, listed as recombinant human lysozyme): 12.93 ± 2.05 days | result of pathology detection of the mice lung tissue ([2]; high dose 2 mg/ml, 14th day): normal basically | result of pathology detection of the mice trachea ([2]; high dose 2 mg/ml, 14th day): Normal basically | result of pathology detection of the mice lung tissue ([2]; low dose 0.5 mg/ml, 14th day): bronchiole alveolar wall tissue gently thickening, few | result of pathology detection of the mice lung tissue ([2]; medium dose 1 mg/ml, 7th day): few monocaryon infiltrating | bacterial number ([2]; atomization inspired 0.5 (15000 u/piece), 0 day): 350 ± 21.5 CFU/mL | bacterial number ([2]; atomization inspired 1 (30000 u/piece), the 5th day): 78.30 ± 17.86**^ΔΔ CFU/mL | bacterial number ([2]; atomization inspired 2 (60000 u/piece), 0 day): 350 ± 21.5 CFU/mL | 95% feasible limits of ED50 ([2]; mice survival over 14 days, Bliss method): 200 to 900 µg/mL | ED50 (median effective dose) ([2]; mice survival over 14 days, Bliss method, atomization inspired): 530 µg/mL

Reference: patent US20080031868A1, “HUMAN LYSOZYME MEDICINE, ITS MANUFACTURING METHOD AND APPLICATION THEREOF” (priority 2005, published 2008)
